Assays:
[1] = Stability data at 25° C. ± 2° C. and 60% ± 5% relative humidity (six months); assay type: physicochemical; conditions: 60% ± 5% RH
Description: (§1) As used herein, the term “prolonged storage” refers to storage for up to 6 months and different stability conditions refers to storage at 25° C. temperature and 60% relative humidity; or at 40° C. temperature and 75% relative humidity.
(§2) In another general aspect, there is provided a stable composition of Saroglitazar magnesium, wherein the composition contains Saroglitazar magnesium having purity of about 99.0% or more, by weight, by area percentage of HPLC, and one or more of the aldehyde compound of Formula (II), the diketo oxirane compound of Formula (III), the hydroxy methyl compound of Formula (IV), or the dimer compound of Formula (V) in an amount of about 0.15%, or less, by weight, relative to saroglitazar magnesium, on prolonged storage and under different stability conditions i.e. 40° C.±2° C. temperature and 75%±5% relative humidity and at 25° C.±2° C. temperature and 60±5% relative humidity as outlined by the six months' stability data as shown in Table-2 and 3.
(§3) The purity of the samples of Saroglitazar or salts thereof including magnesium and SMBA salt is measured by area percentage of HPLC using following conditions:
(§4) Equipment: Shimadzu LC2020CHT HPLC system or equivalent
(§5) Column: YMC-Pack Pro C18 ([…]×4.0 mm, 3 μm)
(§6) Detector: UV-VIS detector or PDA detector
(§7) Column Oven Temp.: 25° C.

[2] = Stability data at 40° C. ± 2° C. and 75% ± 5% relative humidity (six months); assay type: physicochemical; conditions: 75% ± 5% RH
Description: as §1, §2, §3, §4, §5, §6, §7

LOD ([1]; 1 month): 0.43 % w/w | Related Substance by HPLC: Formula II ([1]; 1 month): 0.01 % w/w | Related Substance by HPLC: Formula V ([1]; 1 month): 0.12 % w/w | Related Substance by HPLC: Total impurities ([1]; 1 month): 0.12 % w/w | LOD ([1]; 2 month): 0.64 % w/w | Related Substance by HPLC: Formula II ([1]; 2 month): 0.01 % w/w | Related Substance by HPLC: Formula V ([1]; 2 month): 0.12 % w/w | Related Substance by HPLC: Total impurities ([1]; 2 month): 0.12 % w/w | LOD ([1]; 3 months): 0.27 % w/w | Related Substance by HPLC: Formula II ([1]; 3 months): 0.01 % w/w | Related Substance by HPLC: Formula V ([1]; 3 months): 0.12 % w/w | Related Substance by HPLC: Total impurities ([1]; 3 months): 0.12 % w/w | LOD ([1]; 6 months): 0.35 % w/w | Related Substance by HPLC: Formula V ([1]; 6 months): 0.12 % w/w | Related Substance by HPLC: Total impurities ([1]; 6 months): 0.12 % w/w | LOD ([1]; Initial): 0.51 % w/w | Related Substance by HPLC: Formula II ([1]; Initial): 0.01 % w/w | Related Substance by HPLC: Formula V ([1]; Initial): 0.11 % w/w | Related Substance by HPLC: Total impurities ([1]; Initial): 0.18 % w/w | LOD ([2]; 1 month): 0.48 % w/w | Related Substance by HPLC: Formula II ([2]; 1 month): 0.01 % w/w | Related Substance by HPLC: Formula V ([2]; 1 month): 0.12 % w/w | Related Substance by HPLC: Total impurities ([2]; 1 month): 0.12 % w/w | LOD ([2]; 2 month): 0.44 % w/w | Related Substance by HPLC: Formula II ([2]; 2 month): 0.01 % w/w | Related Substance by HPLC: Formula V ([2]; 2 month): 0.12 % w/w | Related Substance by HPLC: Total impurities ([2]; 2 month): 0.12 % w/w | LOD ([2]; 3 months): 0.30 % w/w | Related Substance by HPLC: Formula II ([2]; 3 months): 0.01 % w/w | Related Substance by HPLC: Formula V ([2]; 3 months): 0.11 % w/w | Related Substance by HPLC: Total impurities ([2]; 3 months): 0.12 % w/w | LOD ([2]; 6 months): 0.24 % w/w | Related Substance by HPLC: Formula V ([2]; 6 months): 0.12 % w/w | Related Substance by HPLC: Total impurities ([2]; 6 months): 0.12 % w/w | LOD ([2]; Initial): 0.51 % w/w | Related Substance by HPLC: Formula II ([2]; Initial): 0.01 % w/w | Related Substance by HPLC: Formula V ([2]; Initial): 0.11 % w/w | Related Substance by HPLC: Total impurities ([2]; Initial): 0.18 % w/w
Substance: 2-ethoxy-3-(4-(2-(2-methyl-5-(4-(methylthio)phenyl)-1H-pyrrol-1-yl)ethoxy)phenyl)propanoate [Saroglitazar magnesium]
